Assay results published in patent publication US12428406B2 (PMV Pharmaceuticals, Inc., priority 2019, dated 2025).

These compounds were tested against T1, p53 Y220C (Homo sapiens, UniProt P04637, Y220C) (assay: In vitro DNA binding activity assay (HTRF / TR-FRET): stabilization of p53 Y220C and increase of its DNA binding activity). Conditions: recombinant His-tagged p53 Y220C DNA binding domain (aa 94-312), biotin-labeled consensus DNA, incubated at 27° C. or 29° C. for 60 min.
T1 construct: The recombinant protein was a truncation mutant containing only amino acids 94-312 of p53; made in house; host or cells: E. coli
T1 sequence (P04637 94-312, change not shown): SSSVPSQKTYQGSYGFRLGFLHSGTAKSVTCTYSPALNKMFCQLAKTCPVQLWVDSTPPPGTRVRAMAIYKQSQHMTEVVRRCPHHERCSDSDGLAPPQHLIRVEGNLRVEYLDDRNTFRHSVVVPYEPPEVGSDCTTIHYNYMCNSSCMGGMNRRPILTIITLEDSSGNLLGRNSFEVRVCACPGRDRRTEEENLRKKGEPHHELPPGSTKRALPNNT
Type: biochemical
How it was run: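 Stabilization of the mutant is inferred from increased binding of His-tagged p53 Y220C to a biotin-labeled consensus DNA, detected by HTRF with europium-streptavidin and APC-anti-His antibody. The concentration giving a 50% rise over compound-free binding is reported as SC150.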

Row | Compound | SC150 (concentration of the compound required to increase the DNA binding activity by 50%)
1 | COc1cc(S(=O)(=O)NC(C)=O)ccc1NCC#Cc1cc2c(N[C@H]3CC[C@H](N4CC5(CCOCC5)C4)CC3)cccc2n1CC(F)(F)F [Compound 305A, N-((4-((3-(4-(((1R,4R)-4-(7-oxa-2-azaspiro[3.5]nonan-2-yl)cyclohexyl)amino)-1-(2,2,2-trifluoroethyl)-1H-indol-2-yl)prop-2-yn-1-yl)amino)-3-methoxyphenyl)sulfonyl)acetamide] | + (+ = 0 μM ≤ SC150 < 0.05 μM)
2 | COc1cc(S(=O)(=O)NC(=O)CN)ccc1NCC#Cc1cc2c(N[C@H]3CC[C@H](N4CC5(CCOCC5)C4)CC3)cccc2n1CC(F)(F)F [Compound 307A, N-((4-((3-(4-(((1R,4R)-4-(7-oxa-2-azaspiro[3.5]nonan-2-yl)cyclohexyl)amino)-1-(2,2,2-trifluoroethyl)-1H-indol-2-yl)prop-2-yn-1-yl)amino)-3-methoxyphenyl)sulfonyl)-2-aminoacetamide] | + (+ = 0 μM ≤ SC150 < 0.05 μM)
3 | COC(=O)COc1cc(S(C)(=O)=O)ccc1NCC#Cc1cc2c(N[C@H]3CC[C@H](N4CC5(CCOCC5)C4)CC3)cccc2n1CC(F)(F)F [Compound 309A, methyl 2-(2-((3-(4-((4-(7-oxa-2-azaspiro[3.5]nonan-2-yl)cyclohexyl)amino)-1-(2,2,2-trifluoroethyl)-1H-indol-2-yl)prop-2-yn-1-yl)amino)-5-(methylsulfonyl)phenoxy)acetate] | + (+ = 0 μM ≤ SC150 < 0.05 μM)
4 | CS(=O)(=O)c1ccc(NCC#Cc2cc3c(N[C@H]4CC[C@H](N5CC6(CCOCC6)C5)CC4)cccc3n2CC(F)(F)F)c(OCC(=O)O)c1 [Compound 311A, 2-(2-((3-(4-(((1R,4R)-4-(7-oxa-2-azaspiro[3.5]nonan-2-yl)cyclohexyl)amino)-1-(2,2,2-trifluoroethyl)-1H-indol-2-yl)prop-2-yn-1-yl)amino)-5-(methylsulfonyl)phenoxy)acetic acid] | ++ (++ = 0.05 μM ≤ SC150 < 0.1 μM)
5 | COc1cc(S(C)(=O)=O)ccc1NCC#Cc1cc2c(N[C@H]3CC[C@H](N4CCC5(CC4)COC5)CC3)cccc2n1CC(F)(F)F [Compound 313A, 2-{3-[(4-methane-sulfonyl-2-methoxy-phenyl)amino]prop-1-yn-1-yl}-N-[(1R,4R)-4-{2-oxa-7-azaspiro[3.5]nonan-7-yl}cyclohexyl]-1-(2,2,2-trifluoroethyl)-1H-indol-4-amine] | + (+ = 0 μM ≤ SC150 < 0.05 μM)
6 | CCS(=O)(=O)c1ccc(NCC#Cc2cc3c(N[C@H]4CC[C@H](N5CC6(CCOCC6)C5)CC4)cccc3n2CC(F)(F)F)c(OC)c1 [Compound 314A, 2-(3-{[4-(ethanesulfonyl)-2-methoxyphenyl]amino}prop-1-yn-1-yl)-N-[(1R,4R)-4-{7-oxa-2-azaspiro[3.5]nonan-2-yl}cyclohexyl]-1-(2,2,2-trifluoroethyl)-1H-indol-4-amine] | + (+ = 0 μM ≤ SC150 < 0.05 μM)
7 | CCS(=O)(=O)c1ccc(NCC#Cc2cc3c(N[C@H]4CC[C@@H](N5CC6(CCOCC6)C5)CC4)cccc3n2CC(F)(F)F)c(OC)c1 [Compound 315A, 2-(3-{[4-(ethanesulfonyl)-2-methoxyphenyl]amino}prop-1-yn-1-yl)-N-[(1S,4S)-4-{7-oxa-2-azaspiro[3.5]nonan-2-yl}cyclohexyl]-1-(2,2,2-trifluoroethyl)-1H-indol-4-amine] | + (+ = 0 μM ≤ SC150 < 0.05 μM)
8 | NS(=O)(=O)c1ccc(NCC#Cc2cc3c(N[C@H]4CC[C@H](N5CC6(CCOCC6)C5)CC4)cccc3n2CC(F)(F)F)c(OCF)c1 [Compound 316A, 3-(fluoromethoxy)-4-{[3-(4-{[(1R,4R)-4-{7-oxa-2-azaspiro[3.5]nonan-2-yl}cyclo-hexyl]amino}-1-(2,2,2-trifluoroethyl)-1H-indol-2-yl)prop-2-yn-1-yl]amino}benzene-1-sulfonamide] | + (+ = 0 μM ≤ SC150 < 0.05 μM)
9 | CNC(=O)c1ccc(NCC#Cc2cc3c(N[C@H]4CC[C@H](N5CC6(CCCOC6)C5)CC4)cccc3n2CC(F)(F)F)c(OC)c1 [Compound 318A, 3-methoxy-N-methyl-4-{[3-(4-{[(1R,4R)-4-{6-oxa-2-azaspiro[3.5]nonan-2-yl}cyclohexyl]amino}-1-(2,2,2-trifluoroethyl)-1H-indol-2-yl)prop-2-yn-1-yl]amino} benzamide] | + (+ = 0 μM ≤ SC150 < 0.05 μM)
10 | COc1cc(S(N)(=O)=O)ccc1NCC#Cc1cc2c(N[C@H]3CC[C@H](N4CC5(CCCOC5)C4)CC3)cccc2n1CC(F)(F)F [Compound 320A, 3-methoxy-4-{[3-(4-{[(1R,4R)-4-{6-oxa-2-azaspiro[3.5]nonan-2-yl}cyclohexyl]amino}-1-(2,2,2-trifluoro-ethyl)-1H-indol-2-yl)prop-2-yn-1-yl]amino} benzene-1-sulfonamide] | + (+ = 0 μM ≤ SC150 < 0.05 μM)
11 | COc1cc(S(C)(=O)=O)ccc1NCC#Cc1cc2c(N[C@H]3CC[C@H](N4CC5(CCCOC5)C4)CC3)cccc2n1CC(F)(F)F [Compound 322A, 2-{3-[(4-methane-sulfonyl-2-methoxy-phenyl)amino]prop-1-yn-1-yl}-N-[(1R,4R)-4-{6-oxa-2-azaspiro[3.5]nonan-2-yl}cyclohexyl]-1-(2,2,2-trifluoroethyl)-1H-indol-4-amine] | + (+ = 0 μM ≤ SC150 < 0.05 μM)
12 | CS(=O)(=O)c1ccc(NCC#Cc2cc3c(N[C@H]4CC[C@H](N5CC6(CCOCC6)C5)CC4)cccc3n2CC(F)(F)F)c(OCF)c1 [Compound 324A, N-((1R,4R)-4-(7-oxa-2-azaspiro[3.5]nonan-2-yl)cyclohexyl)-2-(3-((2-(fluoromethoxy)-4-(methylsulfonyl)phenyl)amino)prop-1-yn-1-yl)-1-(2,2,2-trifluoroethyl)-1H-indol-4-amine] | + (+ = 0 μM ≤ SC150 < 0.05 μM)
13 | CNS(=O)(=O)c1ccc(NCC#Cc2cc3c(N[C@H]4CC[C@H](N5CC6(CCOCC6)C5)CC4)cccc3n2CC(F)(F)F)c(OC)c1 [Compound 327A, 4-((3-(4-(((1R,4R)-4-(7-oxa-2-azaspiro[3.5]nonan-2-yl)cyclohexyl)amino)-1-(2,2,2-trifluoroethyl)-1H-indol-2-yl)prop-2-yn-1-yl)amino)-3-methoxy-N-methyl-benzenesulfonamide] | + (+ = 0 μM ≤ SC150 < 0.05 μM)
14 | CCOc1cc(S(C)(=O)=O)ccc1NCC#Cc1cc2c(N[C@H]3CC[C@H](N4CC5(CCOCC5)C4)CC3)cccc2n1CC(F)(F)F [Compound 329A, N-((1R,4R)-4-(7-oxa-2-azaspiro[3.5]nonan-2-yl)cyclohexyl)-2-(3-((2-ethoxy-4-(methylsulfonyl)phenyl)amino)prop-1-yn-1-yl)-1-(2,2,2-trifluoroethyl)-1H-indol-4-amine] | + (+ = 0 μM ≤ SC150 < 0.05 μM)
15 | COc1cc(C(N)=O)ccc1NCC#Cc1cc2c(N[C@H]3CC[C@H](N4CC5(CCOCC5)C4)CC3)cccc2n1CC(F)(F)F [Compound 331A, 3-methoxy-4-{[3-(4-{[(1R,4R)-4-{7-oxa-2-azaspiro[3.5]nonan-2-yl}cyclohexyl]amino}-1-(2,2,2-trifluoroethyl)-1H-indol-2-yl)prop-2-yn-1-yl]amino}benzamide] | + (+ = 0 μM ≤ SC150 < 0.05 μM)
16 | COc1cc(C(N)=O)ccc1NCC#Cc1cc2c(N[C@H]3CC[C@H](N4CC5(CCCOC5)C4)CC3)cccc2n1CC(F)(F)F [Compound 333A, 3-methoxy-4-{[3-(4-{[(1R,4R)-4-{6-oxa-2-azaspiro[3.5]nonan-2-yl}cyclohexyl]amino}-1-(2,2,2-trifluoroethyl)-1H-indol-2-yl)prop-2-yn-1-yl]amino}benzamide] | + (+ = 0 μM ≤ SC150 < 0.05 μM)
17 | CNC(=O)c1cc(OC)c(NCC#Cc2cc3c(N[C@H]4CC[C@H](N5CC6(CCOCC6)C5)CC4)cccc3n2CC(F)(F)F)cc1F [Compound 335A, 2-fluoro-5-methoxy-N-methyl-4-{[3-(4-{[(1R,4R)-4-{7-oxa-2-azaspiro[3.5]nonan-2-yl}cyclohexyl]amino}-1-(2,2,2-trifluoroethyl)-1H-indol-2-yl)prop-2-yn-1-yl]amino}benzamide] | + (+ = 0 μM ≤ SC150 < 0.05 μM)
18 | CS(=O)(=O)c1ccc(NCC#Cc2cc3c(NC4CCC(N5CCOCC5)CC4)cccc3n2CC(F)(F)F)c(OCF)c1 [Compound 340A, 2-(3-{[2-(fluoro-methoxy)-4-methane-sulfonylphenyl]amino}prop-1-yn-1-yl)-N-[(1R,4R)-4-(morpholin-4-yl)cyclohexyl]-1-(2,2,2-trifluoroethyl)-1H-indol-4-amine] | + (+ = 0 μM ≤ SC150 < 0.05 μM)
19 | N#CCOc1cc(S(N)(=O)=O)ccc1NCC#Cc1cc2c(N[C@H]3CC[C@H](N4CCOCC4)CC3)cccc2n1CC(F)(F)F [Compound 342A, 3-(cyanomethoxy)-4-{[3-(4-{[(1R,4R)-4-(morpholin-4-yl)cyclohexyl]amino}-1-(2,2,2-trifluoroethyl)-1H-indol-2-yl)prop-2-yn-1-yl]amino}benzene-1-sulfonamide] | + (+ = 0 μM ≤ SC150 < 0.05 μM)
